According to patent US20250215012A1, “IKZF2 DEGRADERS AND USES THEREOF” (REGENTS OF THE UNIVERSITY OF MICHIGAN, priority 2022, published 2025):

Target: IKZF2 (Homo sapiens (Human), UniProt Q96SW2+Q9UKS7)
Test: IKZF2 HiBiT Assay (Jurkat-IKZF2-HiBiT cell line)
Assay type: cell-based
Conditions: Jurkat-IKZF2-HiBiT cells, 24 hours; for DC50: read-out: HiBit assay degradation analysis DC50; for Dmax: read-out: HiBit assay degradation analysis Dmax
Outline: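 Jurkat cells carrying HiBiT-tagged IKZF2 were exposed to serially diluted compound for 24 h at 37 °C. Remaining IKZF2 was measured by Nano-Glo HiBiT lytic luminescence after 10-20 min at room temperature. Signal was normalized to DMSO, and IC50 came from a four-parameter variable-slope fit.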

Chain of IKZF2 (Q9UKS7 whole entry): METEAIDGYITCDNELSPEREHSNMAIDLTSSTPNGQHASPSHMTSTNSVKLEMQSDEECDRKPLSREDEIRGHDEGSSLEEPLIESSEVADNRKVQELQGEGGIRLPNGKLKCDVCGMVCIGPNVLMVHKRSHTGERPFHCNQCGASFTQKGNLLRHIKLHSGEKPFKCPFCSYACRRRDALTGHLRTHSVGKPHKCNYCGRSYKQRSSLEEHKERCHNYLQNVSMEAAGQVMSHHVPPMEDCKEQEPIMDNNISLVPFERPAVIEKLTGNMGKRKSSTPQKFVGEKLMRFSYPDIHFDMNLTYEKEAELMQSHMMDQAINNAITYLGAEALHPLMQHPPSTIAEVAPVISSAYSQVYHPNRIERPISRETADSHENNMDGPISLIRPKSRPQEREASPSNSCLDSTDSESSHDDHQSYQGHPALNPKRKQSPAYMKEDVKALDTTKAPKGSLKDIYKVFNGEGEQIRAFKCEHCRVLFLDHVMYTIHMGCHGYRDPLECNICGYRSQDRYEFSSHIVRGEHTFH
Chain of IKZF2 (Q96SW2 whole entry): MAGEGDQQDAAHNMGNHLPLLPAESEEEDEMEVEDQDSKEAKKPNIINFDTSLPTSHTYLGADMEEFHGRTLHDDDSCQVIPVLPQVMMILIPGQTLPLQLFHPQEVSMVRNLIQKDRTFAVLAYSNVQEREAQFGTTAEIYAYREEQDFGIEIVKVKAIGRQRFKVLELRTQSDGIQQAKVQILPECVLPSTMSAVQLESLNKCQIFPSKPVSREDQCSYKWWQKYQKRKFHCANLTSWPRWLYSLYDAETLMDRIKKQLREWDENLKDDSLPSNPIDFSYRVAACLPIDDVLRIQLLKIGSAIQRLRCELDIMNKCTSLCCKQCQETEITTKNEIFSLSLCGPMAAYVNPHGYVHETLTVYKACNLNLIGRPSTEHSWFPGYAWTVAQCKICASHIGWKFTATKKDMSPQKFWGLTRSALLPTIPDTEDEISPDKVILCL
Chain of IKZF2 (Q16531 whole entry partner): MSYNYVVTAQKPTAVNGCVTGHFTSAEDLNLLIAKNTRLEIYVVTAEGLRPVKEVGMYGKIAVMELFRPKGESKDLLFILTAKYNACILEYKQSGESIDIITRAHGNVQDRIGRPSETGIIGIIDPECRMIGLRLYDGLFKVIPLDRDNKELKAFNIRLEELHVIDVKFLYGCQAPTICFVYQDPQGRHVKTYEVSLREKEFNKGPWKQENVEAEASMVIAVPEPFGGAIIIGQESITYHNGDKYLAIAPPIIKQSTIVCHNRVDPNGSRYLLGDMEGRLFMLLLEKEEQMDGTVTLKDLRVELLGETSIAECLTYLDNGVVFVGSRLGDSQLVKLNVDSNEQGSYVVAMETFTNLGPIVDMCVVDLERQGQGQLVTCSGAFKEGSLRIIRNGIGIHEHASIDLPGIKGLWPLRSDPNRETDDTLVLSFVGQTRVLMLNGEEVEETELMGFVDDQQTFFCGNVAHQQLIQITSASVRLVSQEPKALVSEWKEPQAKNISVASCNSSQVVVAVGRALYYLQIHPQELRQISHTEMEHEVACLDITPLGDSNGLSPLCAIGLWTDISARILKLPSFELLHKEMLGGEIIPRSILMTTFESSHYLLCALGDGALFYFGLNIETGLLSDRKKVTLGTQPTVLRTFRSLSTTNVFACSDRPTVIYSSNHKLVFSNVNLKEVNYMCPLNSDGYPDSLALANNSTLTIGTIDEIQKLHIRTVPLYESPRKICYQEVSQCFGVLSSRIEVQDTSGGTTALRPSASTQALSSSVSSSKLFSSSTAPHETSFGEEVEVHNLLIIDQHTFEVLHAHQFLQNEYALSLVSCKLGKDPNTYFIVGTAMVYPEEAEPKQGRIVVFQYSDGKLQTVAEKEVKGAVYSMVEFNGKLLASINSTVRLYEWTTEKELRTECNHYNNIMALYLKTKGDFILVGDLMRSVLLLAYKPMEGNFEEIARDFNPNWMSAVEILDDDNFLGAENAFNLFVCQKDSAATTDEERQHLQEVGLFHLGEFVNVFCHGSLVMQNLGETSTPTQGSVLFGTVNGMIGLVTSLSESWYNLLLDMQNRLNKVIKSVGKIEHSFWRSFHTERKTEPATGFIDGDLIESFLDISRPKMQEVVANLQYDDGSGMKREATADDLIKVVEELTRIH

| Compound | DC50 | Dmax |
| --- | --- | --- |
| Cn1ncc2cc(CN3CCC4(CC3)COc3c4ccc4c3CN(C3CCC(=O)NC3=O)C4=O)ccc21 (stereo not shown) [Compound A217, 3-(1′-((1-methyl-1H-indazol-5-yl)methyl)-6-oxo-6,8-dihydro-2H,7H-spiro[furo[2,3-e]isoindole-3,4′-piperidin]-7-yl)piperidine-2,6-dione] | > 500 nM | < 40% |
| O=C1CCC(N2Cc3c(ccc4c3OCC43CCN(Cc4cccc5c4CCCO5)CC3)C2=O)C(=O)N1 (stereo not shown) [Compound A218, 3-(1′-(chroman-5-ylmethyl)-6-oxo-6,8-dihydro-2H,7H-spiro[furo[2,3-e]isoindole-3,4′-piperidin]-7-yl)piperidine-2,6-dione] | < 50 nM | 60 to 80% |
| N#Cc1cccc(CN2CCC3(CC2)COc2c3ccc3c2CN(C2CCC(=O)NC2=O)C3=O)c1 (stereo not shown) [Compound A219, 3-((7-(2,6-dioxopiperidin-3-yl)-6-oxo-7,8-dihydro-2H,6H-spiro[furo[2,3-e]isoindole-3,4′-piperidin]-1′-yl)methyl)benzonitrile] | 200 to 500 nM | 40 to 60% |
| O=C1CCC(N2Cc3c(ccc4c3OCC43CCN(Cc4cnn(C5CCCCC5)c4)CC3)C2=O)C(=O)N1 (stereo not shown) [Compound A220, 3-(1′-((1-cyclohexyl-1H-pyrazol-4-yl)methyl)-6-oxo-6,8-dihydro-2H,7H-spiro[furo[2,3-e]isoindole-3,4′-piperidin]-7-yl)piperidine-2,6-dione] | > 500 nM | < 40% |
| O=C1CCC(N2Cc3c(ccc4c3OCC43CCN(Cc4cnn(-c5ccccc5)c4)CC3)C2=O)C(=O)N1 (stereo not shown) [Compound A221, 3-(6-oxo-1′-((1-phenyl-1H-pyrazol-4-yl)methyl)-6,8-dihydro-2H,7H-spiro[furo[2,3-e]isoindole-3,4′-piperidin]-7-yl)piperidine-2,6-dione] | > 500 nM | 40 to 60% |
| O=C1CCC(N2Cc3c(ccc4c3OCC43CCN(Cc4ccc(-n5cccn5)cc4)CC3)C2=O)C(=O)N1 (stereo not shown) [Compound A222, 3-(1′-(4-(1H-pyrazol-1-yl)benzyl)-6-oxo-6,8-dihydro-2H,7H-spiro[furo[2,3-e]isoindole-3,4′-piperidin]-7-yl)piperidine-2,6-dione] | > 500 nM | 40 to 60% |
| O=C1CCC(N2Cc3c(ccc4c3OCC43CCN(Cc4c(F)ccc5occc45)CC3)C2=O)C(=O)N1 (stereo not shown) [Compound A223, 3-(1′-((5-fluorobenzofuran-4-yl)methyl)-6-oxo-6,8-dihydro-2H,7H-spiro[furo[2,3-e]isoindole-3,4′-piperidin]-7-yl)piperidine-2,6-dione] | 200 to 500 nM | 40 to 60% |
| O=C1CCC(N2Cc3c(ccc4c3OCC43CCN(Cc4cccc5c4OCC5)CC3)C2=O)C(=O)N1 (stereo not shown) [Compound A224, 3-(1′-((2,3-dihydrobenzofuran-7-yl)methyl)-6-oxo-6,8-dihydro-2H,7H-spiro[furo[2,3-e]isoindole-3,4′-piperidin]-7-yl)piperidine-2,6-dione] | 200 to 500 nM | 40 to 60% |
| O=C1CCC(N2Cc3c(ccc4c3OCC43CCN(Cc4cccc5c4OCO5)CC3)C2=O)C(=O)N1 (stereo not shown) [Compound A225, 3-(1′-(benzo[d][1,3]dioxol-4-ylmethyl)-6-oxo-6,8-dihydro-2H,7H-spiro[furo[2,3-e]isoindole-3,4′-piperidin]-7-yl)piperidine-2,6-dione] | > 500 nM | 40 to 60% |
| Cn1nc(CN2CCC3(CC2)COc2c3ccc3c2CN(C2CCC(=O)NC2=O)C3=O)c2ccccc21 (stereo not shown) [Compound A226, 3-(1′-((1-methyl-1H-indazol-3-yl)methyl)-6-oxo-6,8-dihydro-2H,7H-spiro[furo[2,3-e]isoindole-3,4′-piperidin]-7-yl)piperidine-2,6-dione] | > 500 nM | 40 to 60% |
| O=C1CCC(N2Cc3c(ccc4c3OCC43CCN(Cc4n[nH]c5ccccc45)CC3)C2=O)C(=O)N1 (stereo not shown) [Compound A227, 3-(1′-((1H-indazol-3-yl)methyl)-6-oxo-6,8-dihydro-2H,7H-spiro[furo[2,3-e]isoindole-3,4′-piperidin]-7-yl)piperidine-2,6-dione] | > 500 nM | 40 to 60% |
| Cn1cc(CN2CCC3(CC2)COc2c3ccc3c2CN(C2CCC(=O)NC2=O)C3=O)cn1 (stereo not shown) [Compound A228, 3-(1′-((1-methyl-1H-pyrazol-4-yl)methyl)-6-oxo-6,8-dihydro-2H,7H-spiro[furo[2,3-e]isoindole-3,4′-piperidin]-7-yl)piperidine-2,6-dione] | > 500 nM | < 40% |
| CCn1cc(CN2CCC3(CC2)COc2c3ccc3c2CN(C2CCC(=O)NC2=O)C3=O)cn1 (stereo not shown) [Compound A229, 3-(1′-((1-ethyl-1H-pyrazol-4-yl)methyl)-6-oxo-6,8-dihydro-2H,7H-spiro[furo[2,3-e]isoindole-3,4′-piperidin]-7-yl)piperidine-2,6-dione] | > 500 nM | 40 to 60% |
| O=C1CCC(N2Cc3c(ccc4c3OCC43CCN(Cc4cnn(C5CC5)c4)CC3)C2=O)C(=O)N1 (stereo not shown) [Compound A230, 3-(1′-((1-cyclopropyl-1H-pyrazol-4-yl)methyl)-6-oxo-6,8-dihydro-2H,7H-spiro[furo[2,3-e]isoindole-3,4′-piperidin]-7-yl)piperidine-2,6-dione] | > 500 nM | 40 to 60% |
| O=C1CCC(N2Cc3c(ccc4c3OCC43CCN(Cc4cnn(CC5CC5)c4)CC3)C2=O)C(=O)N1 (stereo not shown) [Compound A231, 3-(1′-((1-(cyclopropylmethyl)-1H-pyrazol-4-yl)methyl)-6-oxo-6,8-dihydro-2H,7H-spiro[furo[2,3-e]isoindole-3,4′-piperidin]-7-yl)piperidine-2,6-dione] | 200 to 500 nM | 60 to 80% |
| O=C1CCC(N2Cc3c(ccc4c3OCC43CCN(Cc4cnn(CC(F)(F)F)c4)CC3)C2=O)C(=O)N1 (stereo not shown) [Compound A232, 3-(6-oxo-1′-((1-(2,2,2-trifluoroethyl)-1H-pyrazol-4-yl)methyl)-6,8-dihydro-2H,7H-spiro[furo[2,3-e]isoindole-3,4′-piperidin]-7-yl)piperidine-2,6-dione] | > 500 nM | 40 to 60% |
| O=C1CCC(N2Cc3c(ccc4c3OCC43CCN(Cc4cnn(CC5CCOCC5)c4)CC3)C2=O)C(=O)N1 (stereo not shown) [Compound A233, 3-(6-oxo-1′-((1-((tetrahydro-2H-pyran-4-yl)methyl)-1H-pyrazol-4-yl)methyl)-6,8-dihydro-2H,7H-spiro[furo[2,3-e]isoindole-3,4′-piperidin]-7-yl)piperidine-2,6-dione] | 200 to 500 nM | 60 to 80% |
| CS(=O)(=O)c1ccccc1CN1CCC2(CC1)COc1c2ccc2c1CN(C1CCC(=O)NC1=O)C2=O (stereo not shown) [Compound A234, 3-(1′-(2-(methylsulfonyl)benzyl)-6-oxo-6,8-dihydro-2H,7H-spiro[furo[2,3-e]isoindole-3,4′-piperidin]-7-yl)piperidine-2,6-dione] | > 500 nM | < 40% |
| CS(=O)(=O)c1cccc(CN2CCC3(CC2)COc2c3ccc3c2CN(C2CCC(=O)NC2=O)C3=O)c1 (stereo not shown) [Compound A235, 3-(1′-(3-(methylsulfonyl)benzyl)-6-oxo-6,8-dihydro-2H,7H-spiro[furo[2,3-e]isoindole-3,4′-piperidin]-7-yl)piperidine-2,6-dione] | > 500 nM | < 40% |
| CS(=O)(=O)c1ccc(CN2CCC3(CC2)COc2c3ccc3c2CN(C2CCC(=O)NC2=O)C3=O)cc1 (stereo not shown) [Compound A236, 3-(1′-(4-(methylsulfonyl)benzyl)-6-oxo-6,8-dihydro-2H,7H-spiro[furo[2,3-e]isoindole-3,4′-piperidin]-7-yl)piperidine-2,6-dione] | > 500 nM | < 40% |
| O=C1CCC(N2Cc3c(ccc4c3OCC43CCN(Cc4cnn(Cc5ccc(F)cc5)c4)CC3)C2=O)C(=O)N1 (stereo not shown) [Compound A237, 3-(1′-((1-(4-fluorobenzyl)-1H-pyrazol-4-yl)methyl)-6-oxo-6,8-dihydro-2H,7H-spiro[furo[2,3-e]isoindole-3,4′-piperidin]-7-yl)piperidine-2,6-dione] | 50 to 200 nM | 60 to 80% |
| O=C1CCC(N2Cc3c(ccc4c3OCC43CCN(Cc4cnn(Cc5cccc(F)c5)c4)CC3)C2=O)C(=O)N1 (stereo not shown) [Compound A238, 3-(1′-((1-(3-fluorobenzyl)-1H-pyrazol-4-yl)methyl)-6-oxo-6,8-dihydro-2H,7H-spiro[furo[2,3-e]isoindole-3,4′-piperidin]-7-yl)piperidine-2,6-dione] | < 50 nM | 60 to 80% |
| O=C1CCC(N2Cc3c(ccc4c3OCC43CCN(Cc4cnn(Cc5ccccc5F)c4)CC3)C2=O)C(=O)N1 (stereo not shown) [Compound A239, 3-(1′-((1-(2-fluorobenzyl)-1H-pyrazol-4-yl)methyl)-6-oxo-6,8-dihydro-2H,7H-spiro[furo[2,3-e]isoindole-3,4′-piperidin]-7-yl)piperidine-2,6-dione] | < 50 nM | 60 to 80% |
| O=C1CCC(N2Cc3c(ccc4c3OCC43CCN(Cc4cnn(Cc5ccccc5Cl)c4)CC3)C2=O)C(=O)N1 (stereo not shown) [Compound A240, 3-(1′-((1-(2-chlorobenzyl)-1H-pyrazol-4-yl)methyl)-6-oxo-6,8-dihydro-2H,7H-spiro[furo[2,3-e]isoindole-3,4′-piperidin]-7-yl)piperidine-2,6-dione] | < 50 nM | 60 to 80% |
| O=C1CCC(N2Cc3c(ccc4c3OCC43CCN(Cc4cnn(Cc5ccc(Cl)cc5)c4)CC3)C2=O)C(=O)N1 (stereo not shown) [Compound A241, 3-(1′-((1-(4-chlorobenzyl)-1H-pyrazol-4-yl)methyl)-6-oxo-6,8-dihydro-2H,7H-spiro[furo[2,3-e]isoindole-3,4′-piperidin]-7-yl)piperidine-2,6-dione] | < 50 nM | 60 to 80% |
| O=C1CCC(N2Cc3c(ccc4c3OCC43CCN(Cc4cnn(Cc5cccc(Cl)c5)c4)CC3)C2=O)C(=O)N1 (stereo not shown) [Compound A242, 3-(1′-((1-(3-chlorobenzyl)-1H-pyrazol-4-yl)methyl)-6-oxo-6,8-dihydro-2H,7H-spiro[furo[2,3-e]isoindole-3,4′-piperidin]-7-yl) piperidine-2,6-dione] | < 50 nM | 60 to 80% |
